Assay results: publication PMC12693701, “Glucosinolate-Derived Metabolites from Barbarea vulgaris (Brassicaceae): Evaluation of Antimicrobial, Antioxidant, and Anti-Inflammatory Potentials” (Molecules, 2025)
Values after ≈ are worked out from the molar mass of the structure shown. Where two headings read alike, the source gives them in different places.

Columns and labels:
[1] = tested on: B. pumilus NCTC 8241; experiment: Microdilution MIC/MMC with resazurin; format: cell-based, Bacillus pumilus; settings: for MIC: Bacillus pumilus, NCTC8241
Method: (§1) The antimicrobial activity was evaluated against 15 microorganisms. This included 11 bacterial strains: four standard strains (Staphylococcus aureus ATCC 25923, Bacillus subtilis ATCC 6633, Bacillus pumilus NCTC 8241, and Escherichia coli ATCC 25922) and six clinical or environmental isolates (Staphylococcus aureus, Escherichia coli, Bacillus cereus, Proteus mirabilis, Salmonella enterica, and Klebsiella pneumoniae). One probiotic strain, Bifidobacterium animalis subsp. lactis was tested. In addition, four fungal strains, Candida albicans ATCC 10231, Trichoderma viride ATCC 13233, Aspergillus flavus ATCC 9170, and Fusarium solani ATCC 11712 were tested. The bacterial strains were kept in glycerol stock at −80 °C and the fungal strains in paraffin oil stock at 4 °C.
(§2) Bacterial and yeast suspensions were prepared using the direct colony method, as previously described by Andrews. The turbidity of the initial suspensions was adjusted to match the 0.5 McFarland standard using a densitometer (Biosan, Riga, Latvia), corresponding to approximately 10^8 colony-forming units (CFU)/mL for bacterial cells and 10^6 CFU/mL for yeast cells. Subsequently, 1:100 dilutions of the initial suspensions were prepared in sterile 0.85% saline. Fungal spore suspensions were obtained by gently harvesting spores from agar slopes containing mature mycelial growth. The collected spore suspensions were then diluted 1:1000 in sterile 0.85% saline prior to use.
(§3) Antimicrobial activity was evaluated by determining the minimum inhibitory concentration (MIC) and minimum microbicidal concentration (MMC) using the microdilution plate method with resazurin as an indicator [28]. In the 96-well plates, 100 μL of Mueller–Hinton broth (Torlak, Belgrade, Serbia) for bacterial testing and Sabouraud broth (Torlak, Belgrade, Serbia) for fungal testing were dispensed into each well. The compounds under investigation were initially dissolved in a 10% dimethyl sulfoxide (DMSO) solution, followed by dilution in sterile distilled water, resulting in a working compound solution containing 1% DMSO. A 100 μL aliquot of the stock solution of the tested compound was added to the first row, and twofold serial dilutions were then carried out using a multichannel pipette. The resulting concentration range was from 5 to 0.039 mg/mL. The inoculated microtiter plates were incubated at 37 °C for 24 h for bacteria, at 28 °C for 48 h for yeasts, and at 28 °C for 72 h for molds.
(§4) Each test also included growth control and sterility control. All tests were conducted in duplicate. MIC was defined as the lowest concentration of tested compounds that prevented resazurin color change from blue to pink. For molds, MIC values of the tested compound were determined as the lowest concentration that inhibited visible mycelia growth. MMC was determined by inoculation of the nutrient agar medium by plating […] of samples from wells, where no indicator color change was recorded. At the end of the incubation period, the lowest concentration with no growth (no colony) was defined as MMC.
(§5) Doxycycline, ampicillin and amphotericin B (- Sigma-Aldrich, St. Louis, MO, USA) and ketoconazole (Hemofarm A.D., Vršac, Serbia) were dissolved in a nutrient liquid medium. Doxycycline is a broad-spectrum antibiotic effective against both aerobic and anaerobic Gram-positive and Gram-negative bacteria. Ampicillin, a beta-lactam antibiotic, primarily targets Gram-positive bacteria but also some Gram-negative strains. Amphotericin B is an antifungal drug often used for serious systemic fungal infections and is one of the effective treatments for fungal infections caused by Aspergillus sp. Ketoconazole is an antifungal agent used to inhibit the growth of Candida species.

[2] = DPPH radical scavenging assay; settings: mean ± SD
Method: The DPPH assay was used to assess the ability of the tested compounds to scavenge reactive radical species. Stock solutions of the investigated compounds were prepared in DMSO and then diluted with methanol to a final volume of 1000 µL. An equal volume of a 50 µM DPPH solution in methanol was then added to the prepared mixture. The final concentrations of the test compounds were 25, 50, and 100 µM. After thorough mixing, the samples were incubated in the dark at room temperature for 20 to 60 min. Methanol was used as a blank, and absorbance was measured at 517 nm after incubation. All measurements were performed in triplicate.

[3] = tested on: C. albicans ATCC 10231; experiment: Microdilution MIC/MMC with resazurin; format: cell-based, Candida albicans; settings: for MIC: Candida albicans, ATCC10231
Method: as §1, §2, §3, §4, §5

[4] = tested on: T. viride ATCC 13233; experiment: Microdilution MIC/MMC; format: cell-based, Trichoderma viride
Method: as §1, §2, §3, §4, §5

[5] = tested on: E. coli; experiment: Microdilution MIC/MMC with resazurin; format: cell-based, Escherichia coli; settings: E. coli isolate, compounds 1–8
Method: as §1, §2, §3, §4, §5

[6] = tested on: E. coli ATCC 25922; experiment: Microdilution MIC/MMC with resazurin; format: cell-based, Escherichia coli; settings: for MIC: Escherichia coli, ATCC25922
Method: as §1, §2, §3, §4, §5

[7] = tested on: B. cereus; experiment: Microdilution MIC/MMC with resazurin; format: cell-based, Bacillus cereus; settings: for MIC: Bacillus cereus
Method: as §1, §2, §3, §4, §5

[8] = tested on: S. aureus ATCC 25923; experiment: Microdilution MIC/MMC with resazurin; format: cell-based, Staphylococcus aureus; settings: for MIC: Staphylococcus aureus, ATCC25923
Method: as §1, §2, §3, §4, §5

[9] = tested on: S. aureus; experiment: Microdilution MIC/MMC with resazurin; format: cell-based, Staphylococcus aureus; settings: for MIC: Staphylococcus aureus
Method: as §1, §2, §3, §4, §5

[10] = tested on: B. subtilis ATCC 6633; experiment: Microdilution MIC/MMC with resazurin; format: cell-based, Bacillus subtilis; settings: for MIC: Bacillus subtilis, ATCC6633
Method: as §1, §2, §3, §4, §5

[11] = tested on: F. solani ATCC 11712; experiment: Microdilution MIC/MMC; format: cell-based, Fusarium solani
Method: as §1, §2, §3, §4, §5

[12] = tested on: P. mirabilis; experiment: Microdilution MIC/MMC with resazurin; format: cell-based, Proteus mirabilis; settings: for MIC: Proteus mirabilis
Method: as §1, §2, §3, §4, §5

[13] = tested on: K. pneumoniae; experiment: Microdilution MIC/MMC with resazurin; format: cell-based, Klebsiella pneumoniae; settings: for MIC: Klebsiella pneumoniae
Method: as §1, §2, §3, §4, §5

[14] = tested on: S. enterica; experiment: Microdilution MIC/MMC with resazurin; format: cell-based, Salmonella enterica; settings: compounds 1–8; for MIC: Salmonella enterica
Method: as §1, §2, §3, §4, §5

[15] = tested on: A. flavus ATCC 9170; experiment: Microdilution MIC/MMC; format: cell-based, Aspergillus flavus
Method: as §1, §2, §3, §4, §5

[16] = B. pumilus NCTC 8241, compounds 1–8
[17] = B. pumilus NCTC 8241, compounds 1–8, read-out: MIC
[18] = C. albicans ATCC 10231, compounds 1–8
[19] = C. albicans ATCC 10231, compounds 1–8, read-out: MIC
[20] = T. viride ATCC 13233, compounds 1–8
[21] = Trichoderma viride, ATCC13233, T. viride ATCC 13233, compounds 1–8, read-out: MIC
[22] = Escherichia coli, read-out: MIC
[23] = E. coli ATCC 25922, compounds 1–8
[24] = E. coli ATCC 25922, compounds 1–8, read-out: MIC
[25] = B. cereus, compounds 1–8, read-out: MIC
[26] = S. aureus ATCC 25923, compounds 1–8
[27] = S. aureus ATCC 25923, compounds 1–8, read-out: MIC
[28] = S. aureus isolate, compounds 1–8
[29] = S. aureus isolate, compounds 1–8, read-out: MIC
[30] = B. subtilis ATCC 6633, compounds 1–8
[31] = B. subtilis ATCC 6633, compounds 1–8, read-out: MIC
[32] = F. solani ATCC 11712, compounds 1–8
[33] = Fusarium solani, ATCC11712, F. solani ATCC 11712, compounds 1–8, read-out: MIC
[34] = P. mirabilis, compounds 1–8, read-out: MIC
[35] = K. pneumoniae, compounds 1–8, read-out: MIC
[36] = A. flavus ATCC 9170, compounds 1–8
[37] = Aspergillus flavus, ATCC9170, A. flavus ATCC 9170, compounds 1–8, read-out: MIC

Structure (SMILES) | MMC [1, 16] | DPPH Scavenging Ability ([2]; 25 µM, 20 min) | DPPH Scavenging Ability ([2]; 25 µM, 60 min) | DPPH Scavenging Ability ([2]; 50 µM, 20 min) | DPPH Scavenging Ability ([2]; 50 µM, 60 min) | DPPH Scavenging Ability ([2]; 100 µM, 20 min) | DPPH Scavenging Ability ([2]; 100 µM, 60 min) | MMC [3, 18] | MMC [4, 20] | MMC [5] | MMC [6, 23] | MMC ([7]; B. cereus, compounds 1–8) | MMC [8, 26] | MMC [9, 28] | MMC [10, 30] | MMC [11, 32] | MMC ([12]; P. mirabilis, compounds 1–8) | MMC ([13]; K. pneumoniae, compounds 1–8) | MIC [14] | MMC [15, 36] | other results
O=C1NCC(c2ccccc2)O1 (stereo not drawn) [Compound 7, 5-Phenyl-1,3-oxazolidin-2-one] | 5 mg/mL | 1.1 ± 0.4% | 0.9 ± 0.7% | 1.5 ± 0.9% | 1.5 ± 0.8% | 2.6 ± 1.0% | 2.7 ± 1.5% | 5 mg/mL | 2.5 mg/mL | 2.5 mg/mL | 2.5 mg/mL | 5 mg/mL | 5 mg/mL | 5 mg/mL | 5 mg/mL | 2.5 mg/mL | 2.5 mg/mL | 2.5 mg/mL | 1250 µg/mL (≈ 7660 µM) | 2.5 mg/mL | MIC [1, 17]: 5000 µg/mL (≈ 30600 µM); MIC [3, 19]: 2500 µg/mL (≈ 15300 µM); MIC [4, 21]: 1250 µg/mL (≈ 7660 µM); MIC [5, 22]: 1250 µg/mL (≈ 7660 µM); MIC [6, 24]: 1250 µg/mL (≈ 7660 µM); MIC [7, 25]: 5000 µg/mL (≈ 30600 µM); MIC [8, 27]: 5000 µg/mL (≈ 30600 µM); MIC [9, 29]: 2500 µg/mL (≈ 15300 µM); MIC [10, 31]: 5000 µg/mL (≈ 30600 µM); MIC [11, 33]: 2500 µg/mL (≈ 15300 µM); MIC [12, 34]: 2500 µg/mL (≈ 15300 µM); MIC [13, 35]: 2500 µg/mL (≈ 15300 µM); MMC [14]: 2.5 mg/mL; MIC [15, 37]: 2500 µg/mL (≈ 15300 µM)
Oc1ccc(CCN=C=S)cc1 [Compound 8, 2-(4-hydroxyphenyl)ethyl isothiocyanate] | 0.156 mg/mL | 4.4 ± 1.0% | 4.7 ± 1.2% | 7.3 ± 1.3% | 8.1 ± 1.3% | 13.1 ± 0.7% | 14.2 ± 0.9% | 2.5 mg/mL | <0.039 mg/mL | 0.625 mg/mL | 0.312 mg/mL | 1.25 mg/mL | 0.625 mg/mL | 0.312 mg/mL | >5 mg/mL | <0.039 mg/mL | 0.625 mg/mL | 0.625 mg/mL | 312 µg/mL (≈ 1740 µM) | <0.039 mg/mL | MIC [1]: 156 µg/mL (≈ 870 µM); MIC [3]: 2500 µg/mL (≈ 13900 µM); MIC [4, 20]: <39 µg/mL; MIC ([4]; Trichoderma viride, ATCC13233): < 39 µg/mL; MIC [5]: <39 µg/mL; MIC ([5]; Escherichia coli): 39 µg/mL (≈ 218 µM); MIC [6]: 78 µg/mL (≈ 435 µM); MIC [7]: 156 µg/mL (≈ 870 µM); MIC [8]: 156 µg/mL (≈ 870 µM); MIC [9]: 78 µg/mL (≈ 435 µM); MIC [10]: 312 µg/mL (≈ 1740 µM); MIC [11, 32]: <39 µg/mL; MIC ([11]; Fusarium solani, ATCC11712): < 39 µg/mL; MIC [12]: 156 µg/mL (≈ 870 µM); MIC [13]: 312 µg/mL (≈ 1740 µM); MMC [14]: 1.25 mg/mL; MIC [15, 36]: <39 µg/mL; MIC ([15]; Aspergillus flavus, ATCC9170): < 39 µg/mL
CSC(=S)NCCc1ccc(O)cc1 [Compound 2, methyl-4-hydroxyphenylethyl dithiocarbamate] | 0.156 mg/mL | 11.9 ± 0.7% | 12.0 ± 0.4% | 15.6 ± 0.3% | 15.7 ± 1.4% | 24.9 ± 1.1% | 25.2 ± 1.6% | >5 mg/mL | 0.312 mg/mL | 0.312 mg/mL | 0.312 mg/mL | 0.625 mg/mL | 0.156 mg/mL | 0.312 mg/mL | 1.25 mg/mL | 0.234 mg/mL | 0.312 mg/mL | 0.625 mg/mL | 625 µg/mL (≈ 2750 µM) | 0.625 mg/mL | MIC [1, 17]: 156 µg/mL (≈ 686 µM); MIC [3, 19]: 2500 µg/mL (≈ 11000 µM); MIC [4, 21]: 156 µg/mL (≈ 686 µM); MIC [5, 22]: 312 µg/mL (≈ 1370 µM); MIC [6, 24]: 312 µg/mL (≈ 1370 µM); MIC [7, 25]: 156 µg/mL (≈ 686 µM); MIC [8, 27]: 156 µg/mL (≈ 686 µM); MIC [9, 29]: 312 µg/mL (≈ 1370 µM); MIC [10, 31]: 78 µg/mL (≈ 343 µM); MIC [11, 33]: 156 µg/mL (≈ 686 µM); MIC [12, 34]: 156 µg/mL (≈ 686 µM); MIC [13, 35]: 625 µg/mL (≈ 2750 µM); MIC [15, 37]: 312 µg/mL (≈ 1370 µM)
